Experimental data from ChEMBL document CHEMBL1201862, “PubChem BioAssay data set” (2004).
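In this assay, cells in 96-well plates receive the compound at five concentrations for 48 hours. Endpoints are linearly interpolated between the surrounding concentrations. GI50: concentration for 50% inhibition of growth.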 Activity calls are given as the source filed them. No stated cut-off is given here; in the data, active = GI50 up to about 1.1 µM and inactive = higher.

How the values were obtained:
Assay in all cases: inhibition of tumour cell growth, NCI panel, 48 h
HOP-18 = tested on: HOP-18
A498 = tested on: A498
U-251 = tested on: U-251
OVCAR-5 = tested on: OVCAR-5
SF-268 = tested on: SF-268
SF-295 = tested on: SF-295
HCT-15 = tested on: HCT-15
SNB-75 = tested on: SNB-75
SK-MEL-28 = tested on: SK-MEL-28
LOX IMVI = tested on: LOX IMVI
HOP-92 = tested on: HOP-92
NCI-H226 = tested on: NCI-H226
MOLT-4 = tested on: MOLT-4
COLO 205 = tested on: COLO 205
SK-MEL-2 = tested on: SK-MEL-2
DMS-273 = tested on: DMS-273
DMS-114 = tested on: DMS-114
SF-539 = tested on: SF-539
CAKI-1 = tested on: CAKI-1
UACC-257 = tested on: UACC-257
HCC 2998 = tested on: HCC 2998
MCF7 = tested on: MCF7
A549 = tested on: A549
NCI-H522 = tested on: NCI-H522
DLD-1 = tested on: DLD-1
M19-MEL = tested on: M19-MEL
HL-60 = tested on: HL-60
SR = tested on: SR
NCI-H23 = tested on: NCI-H23
OVCAR-8 = tested on: OVCAR-8
UO-31 = tested on: UO-31
SK-MEL-5 = tested on: SK-MEL-5
K562 = tested on: K562
LXFL 529 = tested on: LXFL 529
ACHN = tested on: ACHN
Malme-3M = tested on: Malme-3M
OVCAR-3 = tested on: OVCAR-3
RXF 393 = tested on: RXF 393
OVCAR-4 = tested on: OVCAR-4
SW-620 = tested on: SW-620
SNB-19 = tested on: SNB-19
SN12C = tested on: SN12C
HCT-116 = tested on: HCT-116
CCRF-CEM = tested on: CCRF-CEM
KM-20L2 = tested on: KM-20L2
UACC-62 = tested on: UACC-62
RPMI-8226 = tested on: RPMI-8226
786-0 = tested on: 786-0
IGROV-1 = tested on: IGROV-1
SK-OV-3 = tested on: SK-OV-3
NCI/ADR-RES = tested on: NCI/ADR-RES
KM12 = tested on: KM12
SNB-78 = tested on: SNB-78
EKVX = tested on: EKVX
HT-29 = tested on: HT-29
HOP-62 = tested on: HOP-62
NCI-H460 = tested on: NCI-H460
M14 = tested on: M14
XF498 = tested on: XF498
TK-10 = tested on: TK-10

SMILES: CNC(=O)OCc1nc(SC(C)C)n(C)c1COC(=O)NC
- GI50 (HOP-18): > 100 µM (inactive)
- GI50 (A498): > 100 µM (inactive)
- GI50 (U-251): > 100 µM (inactive)
- GI50 (OVCAR-5): > 100 µM (inactive)
- GI50 (SF-268): > 91.6 µM (inactive)
- GI50 (SF-295): > 100 µM (inactive)
- GI50 (HCT-15): > 100 µM
- GI50 (SNB-75): > 100 µM (inactive)
- GI50 (SK-MEL-28): > 100 µM (inactive)
- GI50 (LOX IMVI): > 100 µM (inactive)
- GI50 (HOP-92): > 100 µM (inactive)
- GI50 (NCI-H226): > 100 µM (inactive)
- GI50 (MOLT-4): 44.8 µM (inactive)
- GI50 (COLO 205): > 100 µM (inactive)
- GI50 (SK-MEL-2): > 100 µM (inactive)
- GI50 (DMS-273): 99.8 µM (inactive)
- GI50 (DMS-114): > 83.6 µM (inactive)
- GI50 (SF-539): > 100 µM (inactive)
- GI50 (CAKI-1): > 72.3 µM (inactive)
- GI50 (UACC-257): > 100 µM (inactive)
- GI50 (HCC 2998): > 100 µM (inactive)
- GI50 (MCF7): > 100 µM (inactive)
- GI50 (A549): > 100 µM (inactive)
- GI50 (NCI-H522): 58.5 µM (inactive)
- GI50 (DLD-1): > 100 µM (inactive)
- GI50 (M19-MEL): > 100 µM (inactive)
- GI50 (HL-60): 57 µM (inactive)
- GI50 (SR): > 100 µM (inactive)
- GI50 (NCI-H23): > 100 µM (inactive)
- GI50 (OVCAR-8): > 100 µM (inactive)
- GI50 (UO-31): > 100 µM (inactive)
- GI50 (SK-MEL-5): > 100 µM (inactive)
- GI50 (K562): > 69.8 µM (inactive)
- GI50 (LXFL 529): > 100 µM (inactive)
- GI50 (ACHN): > 100 µM (inactive)
- GI50 (Malme-3M): > 100 µM (inactive)
- GI50 (OVCAR-3): > 100 µM (inactive)
- GI50 (RXF 393): 33.4 µM (inactive)
- GI50 (OVCAR-4): > 100 µM (inactive)
- GI50 (SW-620): > 100 µM (inactive)
- GI50 (SNB-19): > 100 µM (inactive)
- GI50 (SN12C): > 100 µM (inactive)
- GI50 (HCT-116): > 100 µM (inactive)
- GI50 (CCRF-CEM): 48.5 µM (inactive)
- GI50 (KM-20L2): > 100 µM (inactive)
- GI50 (UACC-62): > 100 µM (inactive)
- GI50 (RPMI-8226): > 71.1 µM (inactive)
- GI50 (786-0): > 100 µM (inactive)
- GI50 (IGROV-1): > 100 µM (inactive)
- GI50 (SK-OV-3): > 100 µM (inactive)
- GI50 (NCI/ADR-RES): > 100 µM (inactive)
- GI50 (KM12): > 100 µM (inactive)
- GI50 (SNB-78): 65.6 µM (inactive)
- GI50 (EKVX): > 100 µM (inactive)
- GI50 (HT-29): > 100 µM (inactive)
- GI50 (HOP-62): > 100 µM (inactive)
- GI50 (NCI-H460): 72.8 µM (inactive)
- GI50 (M14): > 100 µM (inactive)

SMILES: Cn1cc(C2(C)CC(C)(C)c3c2n(C)c2ccccc32)c2ccccc21 (configuration not stated)
- GI50 (A498): > 100 µM (inactive)
- GI50 (U-251): > 100 µM (inactive)
- GI50 (SF-268): > 100 µM (inactive)
- GI50 (SF-295): > 100 µM (inactive)
- GI50 (HCT-15): > 100 µM
- GI50 (SNB-75): > 100 µM (inactive)
- GI50 (SK-MEL-28): > 100 µM (inactive)
- GI50 (LOX IMVI): > 100 µM (inactive)
- GI50 (HOP-92): > 100 µM (inactive)
- GI50 (NCI-H226): 90.2 µM (inactive)
- GI50 (MOLT-4): 42.4 µM (inactive)
- GI50 (COLO 205): > 100 µM (inactive)
- GI50 (SK-MEL-2): > 100 µM (inactive)
- GI50 (DMS-273): > 100 µM (inactive)
- GI50 (DMS-114): 59.6 µM (inactive)
- GI50 (SF-539): > 100 µM (inactive)
- GI50 (CAKI-1): > 100 µM (inactive)
- GI50 (XF498): 81.1 µM (inactive)
- GI50 (UACC-257): > 100 µM (inactive)
- GI50 (HCC 2998): 52.4 µM (inactive)
- GI50 (A549): > 100 µM (inactive)
- GI50 (NCI-H522): 40.3 µM (inactive)
- GI50 (DLD-1): > 100 µM (inactive)
- GI50 (M19-MEL): > 100 µM (inactive)
- GI50 (NCI-H23): 95.3 µM (inactive)
- GI50 (OVCAR-8): > 100 µM (inactive)
- GI50 (UO-31): 92.7 µM (inactive)
- GI50 (SK-MEL-5): 69.3 µM (inactive)
- GI50 (K562): 83.8 µM (inactive)
- GI50 (LXFL 529): > 100 µM (inactive)
- GI50 (Malme-3M): > 100 µM (inactive)
- GI50 (OVCAR-3): 64 µM (inactive)
- GI50 (RXF 393): 32.5 µM (inactive)
- GI50 (SW-620): > 100 µM (inactive)
- GI50 (TK-10): > 100 µM (inactive)
- GI50 (SNB-19): > 100 µM (inactive)
- GI50 (SN12C): > 100 µM (inactive)
- GI50 (CCRF-CEM): 92.7 µM (inactive)
- GI50 (KM-20L2): > 100 µM (inactive)
- GI50 (UACC-62): > 100 µM (inactive)
- GI50 (RPMI-8226): 40.2 µM (inactive)
- GI50 (786-0): > 100 µM (inactive)
- GI50 (IGROV-1): > 100 µM (inactive)
- GI50 (SK-OV-3): > 100 µM (inactive)
- GI50 (KM12): 94 µM (inactive)
- GI50 (SNB-78): > 100 µM (inactive)
- GI50 (EKVX): > 100 µM (inactive)
- GI50 (HT-29): 49.8 µM (inactive)
- GI50 (HOP-62): > 100 µM (inactive)
- GI50 (NCI-H460): > 100 µM (inactive)
- GI50 (M14): > 100 µM (inactive)

SMILES: CCN(CC)CSc1nc2ccccc2[nH]1
- GI50 (A498): > 100 µM (inactive)
- GI50 (U-251): > 100 µM (inactive)
- GI50 (OVCAR-5): > 100 µM (inactive)
- GI50 (SF-295): > 100 µM (inactive)
- GI50 (SK-MEL-28): > 100 µM (inactive)
- GI50 (HOP-92): > 100 µM (inactive)
- GI50 (NCI-H226): > 100 µM (inactive)
- GI50 (MOLT-4): > 100 µM (inactive)
- GI50 (DMS-273): > 100 µM (inactive)
- GI50 (DMS-114): > 100 µM (inactive)
- GI50 (UACC-257): > 100 µM (inactive)
- GI50 (A549): > 100 µM (inactive)
- GI50 (NCI-H522): > 100 µM (inactive)
- GI50 (HL-60): > 100 µM (inactive)
- GI50 (SR): > 100 µM (inactive)
- GI50 (NCI-H23): > 100 µM (inactive)
- GI50 (OVCAR-8): > 100 µM (inactive)
- GI50 (UO-31): > 100 µM (inactive)
- GI50 (ACHN): > 100 µM (inactive)
- GI50 (RXF 393): > 100 µM (inactive)
- GI50 (TK-10): > 100 µM (inactive)
- GI50 (SNB-19): > 100 µM (inactive)
- GI50 (HCT-116): > 100 µM (inactive)
- GI50 (CCRF-CEM): > 100 µM (inactive)
- GI50 (IGROV-1): > 100 µM (inactive)
- GI50 (SK-OV-3): > 100 µM (inactive)
- GI50 (KM12): > 100 µM (inactive)
- GI50 (SNB-78): > 100 µM (inactive)
- GI50 (EKVX): > 100 µM (inactive)
- GI50 (HT-29): > 100 µM (inactive)
- GI50 (HOP-62): > 100 µM (inactive)
- GI50 (NCI-H460): > 100 µM (inactive)
- GI50 (M14): > 100 µM (inactive)
